Measurements from patent US7524853B2 (Solvay Pharmaceuticals B.V., priority 2003, dated 2009).

Key:
Format in all cases: cell-based
[1] = biological target: T1, 17β-hydroxysteroid dehydrogenase type 3 (17β-HSD type 3) (Homo sapiens, UniProt P37058); test: Inhibition of 17β-HSD type 3 in MCF-7 cells stably expressing the isoenzyme (tritium labeled androstenedione conversion, HPLC); settings: MCF-7 cells expressing 17β-HSD type 3, 2 nM tritium labeled androstenedione; for % Inhibition HSD3 1 μM / inhibition at 1 µM: 1 μM test compound; for % Inhibition HSD3 10 μM / inhibition at 10 µM: 10 μM test compound; for inhibition at 1 µM / inhibition at 10 µM: MCF7; for inhibition at 1 µM: read-out: % Inhibition HSD3 1 μM; for inhibition at 10 µM: read-out: % Inhibition HSD3 10 μM
T1 construct: expressed in transfected cells; host or cells: MCF-7
T1 sequence (P37058 1-310): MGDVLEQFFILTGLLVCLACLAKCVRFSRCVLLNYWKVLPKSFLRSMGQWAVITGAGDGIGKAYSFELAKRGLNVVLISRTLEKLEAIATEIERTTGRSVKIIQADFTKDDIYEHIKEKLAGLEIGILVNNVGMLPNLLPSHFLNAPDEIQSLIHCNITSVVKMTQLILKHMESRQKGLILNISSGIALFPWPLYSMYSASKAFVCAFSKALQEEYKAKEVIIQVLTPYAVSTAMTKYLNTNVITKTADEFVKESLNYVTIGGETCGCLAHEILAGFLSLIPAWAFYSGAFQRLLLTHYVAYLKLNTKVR
Summary of the method: (§1)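 Compounds are tested at two concentrations on MCF-7 cells carrying a single 17β-HSD isoenzyme, with 2 nM tritiated estrone, estradiol or androstenedione as type 1, 2 or 3 substrate. Percent inhibition reflects lower conversion relative to a compound-free control.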

[2] = biological target: T2, 17β-hydroxysteroid dehydrogenase type 2 (17β-HSD type 2) (Homo sapiens, UniProt P37059); test: Inhibition of 17β-HSD type 2 in MCF-7 cells stably expressing the isoenzyme (tritium labeled estradiol conversion, HPLC); settings: MCF-7 cells expressing 17β-HSD type 2, 2 nM tritium labeled estradiol; for % Inhibition HSD2 1 μM / inhibition at 1 µM: 1 μM test compound; for % Inhibition HSD2 10 μM / inhibition at 10 µM: 10 μM test compound; for inhibition at 1 µM / inhibition at 10 µM: MCF7; for inhibition at 1 µM: read-out: % Inhibition HSD2 1 μM; for inhibition at 10 µM: read-out: % Inhibition HSD2 10 μM
T2 construct: expressed in transfected cells; host or cells: MCF-7
T2 sequence (P37059 1-387): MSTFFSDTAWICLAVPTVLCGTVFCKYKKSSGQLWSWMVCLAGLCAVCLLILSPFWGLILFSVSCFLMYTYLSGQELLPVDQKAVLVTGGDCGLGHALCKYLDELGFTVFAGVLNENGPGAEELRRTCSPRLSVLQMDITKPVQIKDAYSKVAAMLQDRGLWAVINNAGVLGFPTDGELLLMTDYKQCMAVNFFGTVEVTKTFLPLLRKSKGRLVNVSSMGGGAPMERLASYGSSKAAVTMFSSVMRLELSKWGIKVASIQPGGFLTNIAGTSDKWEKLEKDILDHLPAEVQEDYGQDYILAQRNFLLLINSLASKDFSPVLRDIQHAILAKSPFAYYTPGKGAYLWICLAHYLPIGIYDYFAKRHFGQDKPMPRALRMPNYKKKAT
Summary of the method: as §1

[3] = biological target: T3, 17β-hydroxysteroid dehydrogenase type 1 (17β-HSD type 1) (Homo sapiens, UniProt P14061); test: Inhibition of 17β-HSD type 1 in MCF-7 cells stably expressing the isoenzyme (tritium labeled estrone conversion, HPLC); settings: MCF-7 cells expressing 17β-HSD type 1, 2 nM tritium labeled estrone; for % Inhibition HSD1 1 μM / inhibition at 1 µM: 1 μM test compound; for % Inhibition HSD1 10 μM / inhibition at 10 µM: 10 μM test compound; for inhibition at 1 µM / inhibition at 10 µM: MCF7; for inhibition at 1 µM: read-out: % Inhibition HSD1 1 μM; for inhibition at 10 µM: read-out: % Inhibition HSD1 10 μM
T3 construct: expressed in transfected cells; host or cells: MCF-7
T3 sequence (P14061 1-328): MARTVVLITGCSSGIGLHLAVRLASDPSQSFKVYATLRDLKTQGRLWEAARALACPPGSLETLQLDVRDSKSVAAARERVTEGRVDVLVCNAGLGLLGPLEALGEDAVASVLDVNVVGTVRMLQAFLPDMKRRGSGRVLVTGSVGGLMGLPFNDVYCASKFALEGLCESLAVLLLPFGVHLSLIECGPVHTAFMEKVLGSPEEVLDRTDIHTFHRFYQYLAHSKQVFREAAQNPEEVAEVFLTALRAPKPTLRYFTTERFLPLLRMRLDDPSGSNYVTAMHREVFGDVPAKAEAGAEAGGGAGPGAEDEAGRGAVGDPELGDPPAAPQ
Summary of the method: as §1

Row | SMILES | % Inhibition HSD3 1 μM [1] [%] | % Inhibition HSD3 10 μM [1] [%] | % Inhibition HSD2 1 μM [2] [%] | % Inhibition HSD2 10 μM [2] [%] | % Inhibition HSD1 1 μM [3] [%] | % Inhibition HSD1 10 μM [3] [%] | inhibition at 1 µM [1] [%] | inhibition at 10 µM [1] [%] | inhibition at 1 µM [2] [%] | inhibition at 10 µM [2] [%] | inhibition at 1 µM [3] [%] | inhibition at 10 µM [3] [%]
1 | O=c1c2c(nc(Cc3ccccc3)n1Cc1ccccc1)sc1c(O)cccc12 [No. 660] | 16.6 | 19.9 | 19.8 | 48.9 | 21.7 | 37.1 |  |  |  |  |  | 
2 | CCCCC(CC)c1nc2sc3c(O)cccc3c2c(=O)n1Cc1ccccc1 (stereo not drawn) [No. 663] | 12.4 | 45.6 | 37.4 | 57.6 | 26.3 | 24.6 |  |  |  |  |  | 
3 | CC(C)=Cc1nc2sc3c(O)cccc3c2c(=O)n1Cc1ccccc1 [No. 667] | 16.9 | 37.0 | 20.9 | 63.7 | 20.1 | 51.9 |  |  |  |  |  | 
4 | COc1cc(-c2nc3sc4c(c3c(=O)n2Cc2ccccc2)C(C)CCC4)cc(OC)c1OC (stereo not drawn) [No. 683, 3-Benzyl-5-methyl-2-(3,4,5-trimethoxyphenyl)-5,6,7,8-tetrahydro-3H-benzo[4,5]thieno[2,3-d]pyrimidin-4-one] |  |  |  |  |  |  | 8.1 | 37.7 | 9.2 | 18.8 | 16.8 | 32.9
5 | COc1cc(-c2nc3sc4c(c3c(=O)n2Cc2ccccc2)C(C)CCC4=O)cc(OC)c1OC (stereo not drawn) [No. 684, 3-Benzyl-5-methyl-2-(3,4,5-trimethoxyphenyl)-6,7-dihydro-3H,5H-benzo[4,5]thieno[2,3-d]pyrimidin-4,8-dione] |  |  |  |  |  |  | 24.7 | 10.5 | 9.2 | 11 | 24.6 | 63.3
6 | COc1cc(-c2nc3sc4c(c3c(=O)n2Cc2ccccc2)CC(C)CC4)cc(OC)c1OC (stereo not drawn) [No. 687, 3-Benzyl-6-methyl-2-(3,4,5-trimethoxyphenyl)-5,6,7,8-tetrahydro-3H-benzo[4,5]thieno[2,3-d]pyrimidin-4-one] |  |  |  |  |  |  | 1.7 | 7.3 | 8.3 | 5.6 | -3.3 | 5.5
7 | COc1cc(-c2nc3sc4c(c3c(=O)n2Cc2ccccc2)CC(C)CC4=O)cc(OC)c1OC (stereo not drawn) [No. 688, 3-Benzyl-6-methyl-2-(3,4,5-trimethoxyphenyl)-6,7-dihydro-3H,5H-benzo[4,5]thieno[2,3-d]pyrimidin-4,8-dione] |  |  |  |  |  |  | 14.4 | 22.3 | 25.4 | 14.2 | 21.5 | 21.6

Next, values leading:

Row | % Inhibition HSD3 1 μM [1] [%] | % Inhibition HSD3 10 μM [1] [%] | % Inhibition HSD2 1 μM [2] [%] | % Inhibition HSD2 10 μM [2] [%] | % Inhibition HSD1 1 μM [3] [%] | % Inhibition HSD1 10 μM [3] [%] | inhibition at 1 µM [1] [%] | inhibition at 10 µM [1] [%] | inhibition at 1 µM [2] [%] | inhibition at 10 µM [2] [%] | inhibition at 1 µM [3] [%] | inhibition at 10 µM [3] [%] | SMILES
8 |  |  |  |  |  |  | 5.1 | 13.8 | 22.7 | 19.9 | 16.6 | 31.2 | COc1cc(-c2nc3sc4c(c3c(=O)n2Cc2ccccc2)C(C)CC(Br)C4=O)c(Br)c(OC)c1OC (stereo not drawn) [No. 685, 3-Benzyl-7-bromo-2-(2-bromo-3,4,5-trimethoxyphenyl)-5-methyl-6,7-dihydro-3H,5H-benzo[4,5]thieno[2,3-d]pyrimidine-4,8-dione]
9 |  |  |  |  |  |  | -1.1 | 7.1 | 2.1 | 4.3 | 2.1 | 15 | COc1cc(-c2nc3sc4c(O)ccc(C)c4c3c(=O)n2Cc2ccccc2)c(Br)c(OC)c1OC [No. 686, 3-Benzyl-2-(2-bromo-3,4,5-trimethoxyphenyl)-8-hydroxy-5-methyl-3H-benzo[4,5]thieno[2,3-d]pyrimidin-4-one]
10 |  |  |  |  |  |  | -2.4 | 17.4 | -3 | 5.7 | 7.7 | 5.7 | COc1cc(-c2nc3sc4c(c3c(=O)n2Cc2ccccc2)CC(C)C(Br)C4=O)c(Br)c(OC)c1OC (stereo not drawn) [No. 689, 3-Benzyl-7-bromo-6-methyl-2-(2-bromo-3,4,5-trimethoxyphenyl)-6,7-dihydro-3H-benzo[4,5]thieno[2,3-d]pyrimidin-4,8-dione]
11 |  |  |  |  |  |  | -2.7 | 6.4 | 14.2 | 23.5 | 17.3 | 19.2 | COc1cc(-c2nc3sc4c(O)cc(C)cc4c3c(=O)n2Cc2ccccc2)c(Br)c(OC)c1OC [No. 690, 3-Benzyl-2-(2-bromo-3,4,5-trimethoxyphenyl)-8-hydroxy-6-methyl-3H-benzo[4,5]thieno[2,3-d]pyrimidin-4-one]
12 |  |  |  |  |  |  | -5.3 | 11.9 | 2.1 | -6.3 | 7 | 22.6 | CCCCn1c(-c2cc(OC)c(OC)c(OC)c2)nc2sc3c(c2c1=O)CC(C)CC3 (stereo not drawn) [No. 691, 3-Butyl-6-methyl-2-(3,4,5-trimethoxyphenyl)-5,6,7,8-tetrahydro-3H-benzo[4,5]thieno[2,3-d]pyrimidin-4-one]
13 |  |  |  |  |  |  | 9.8 | 35 | 12.7 | 21 | 18 | 28.6 | CCCCn1c(-c2cc(OC)c(OC)c(OC)c2)nc2sc3c(c2c1=O)CC(C)CC3=O (stereo not drawn) [No. 692, 3-Butyl-6-methyl-2-(3,4,5-trimethoxyphenyl)-6,7-dihydro-3H,5H-benzo[4,5]thieno[2,3-d]pyrimidin-4,8-dione]
14 |  |  |  |  |  |  | 5.2 | 16.8 | 18.1 | 18.2 | 15 | 5.7 | CCCCn1c(-c2cc(OC)c(OC)c(OC)c2Br)nc2sc3c(c2c1=O)CC(C)C(Br)C3=O (stereo not drawn) [No. 693, 3-Butyl-7-bromo-6-methyl-2-(2-bromo-3,4,5-trimethoxyphenyl)-6,7-dihydro-3H-benzo[4,5]thieno[2,3-d]pyrimidin-4,8-dione]
15 |  |  |  |  |  |  | 5.8 | 21.1 | 6.2 | 15.8 | 12.1 | 10.9 | CCCCn1c(-c2cc(OC)c(OC)c(OC)c2Br)nc2sc3c(O)cc(C)cc3c2c1=O [No. 694, 3-Butyl-2-(2-bromo-3,4,5-trimethoxyphenyl)-8-hydroxy-6-methyl-3H-benzo[4,5]thieno[2,3-d]pyrimidin-4-one]
16 |  |  |  |  |  |  | 7.4 | 8.5 | 16.1 | 19.6 | 5.9 | 7.3 | CCCCn1c(-c2cc(OC)c(OC)c(O)c2Br)nc2sc3c(O)c(Br)c(C)cc3c2c1=O [No. 699, 7-Bromo-2-(2-bromo-3-hydroxy4,5-dimethoxyphenyl)-3-butyl-8-hydroxy-6-methyl-3H-benzo[4,5]thieno[2,3-d]pyrimidin-4-one]
